The values below come from patent US10206399B2, “Herbicidal composition comprising uracil compound as active ingredient” (Dongbu Farm Hannong Co., Ltd., priority 2012, dated 2019).

Read-outs that look alike come from different tables or passages of the source.

The subject of series [1] is Abutilon theophrasti. In words: Dry field farming herbicidal composition test, plant mortality. In kind it is in vivo.
Text: (§1) X is % damage by uracil compound (a) of formula 1 at the rate of application of p kg/ha; Y is % damage by conventional herbicidal compound (b) at the rate of application of q kg/ha; and E is the expected damage caused by compounds (a) and (b) at a rate of application of p and q kg/ha.
(§2) The expected activity for a given combination of two herbicides can be calculated using equation 1 above.
The test system of series [2] is Digitaria sanguinalis. The description is as above. In kind it is in vivo.
Text: as §1, §2
For series [3], the system named is Echinochloa crus. The series is described as above. In kind it is in vivo.
Text: as §1, §2
Series [4] concerns Aeschynomene indica. In words: Dry field farming herbicidal composition test, plant mortality. In kind it is in vivo.
Text: as §1, §2
In series [5] the test system is Abutilon theophrasti. Description: whole plant or invertebrate. To be noted: for pest or weed control at 25 g/ha: read-out: Data (measured value) Abutilon theophrasti, 25 g/ha.
Text: as §1, §2
The next series deals with Xanthium spinosum. Description: whole plant or invertebrate. The note with it: for pest or weed control at 25 g/ha: read-out: Data (measured value) Xanthium spinosum, 25 g/ha.
Series [6] relates to Echinochloa crus. To be noted: for plant mortality, measured value: Echinochloa crus.
Text: as §1, §2
In series [7] the test system is Aeschynomene indica. Description: whole plant or invertebrate. The note with it: for pest or weed control at 25 g/ha: read-out: Data (measured value) Aeschynomene indica, 25 g/ha.
Text: as §1, §2
Series [8] concerns Digitaria sanguinalis. To be noted: for plant mortality, measured value: Digitaria sanguinalis.
Text: as §1, §2
Where [9] appears, read: Abutilon theophrasti, read-out: Abutilon theophrasti mortality, measured value.
Where [10] appears, read: Digitaria sanguinalis, read-out: Digitaria sanguinalis mortality, measured value.
[11] abbreviates: Echinochloa, read-out: Echinochloa crus mortality, measured value.
Where [12] appears, read: Aeschynomene indica, read-out: Aeschynomene indica mortality, measured value.
Setting [13] is: read-out: plant mortality, measured value, 375 g/ha.
Setting [14] is: read-out: plant mortality, measured value, 750 g/ha.
Where [15] appears, read: read-out: plant mortality, measured value, 1500 g/ha.
Where [16] appears, read: read-out: plant mortality, measured value, 50 g/ha.
Where [17] appears, read: read-out: plant mortality, measured value, 100 g/ha.
Setting [18] is: read-out: plant mortality, measured value, 200 g/ha.

Text for Xanthium spinosum: as §1, §2

As to `COc1ncc(F)c2nc(S(=O)(=O)Nc3c(F)cccc3F)nn12` [Florasulam], the results for the “Abutilon theophrasti mortality, measured value” with Abutilon theophrasti [1] (1 g/ha), in the series on Abutilon theophrasti [1] (2 g/ha) and in the series with Abutilon theophrasti [1] (4 g/ha) were 12, 23 and 54, respectively. The Digitaria sanguinalis mortality, measured value with Digitaria sanguinalis [2] (1 g/ha), with Digitaria sanguinalis [2] (2 g/ha) and in the series on Digitaria sanguinalis [2] (4 g/ha) was 0% throughout. Moreover, the Echinochloa crus mortality, measured value in the series with Echinochloa crus [3] (1 g/ha), in the series on Echinochloa crus [3] (2 g/ha) and with Echinochloa crus [3] (4 g/ha) was 0% throughout. Further, the “Corn mortality, measured value” in the series on corn (1 g/ha), in the series on corn (2 g/ha) and in the series with corn (4 g/ha) was 0 in each case. The results for the Aeschynomene indica mortality, measured value in the series on Aeschynomene indica [4] (1 g/ha), in the series with Aeschynomene indica [4] (2 g/ha) and in the series with Aeschynomene indica [4] (4 g/ha) were 8%, 18% and 46%, respectively.
On to `CC(C)N(C(=O)COc1nnc(C(F)(F)F)s1)c1ccc(F)cc1` [Flufenacet], for which the pest or weed control at 87.5 g/ha came to 9% in the series with Abutilon theophrasti [1] (setting [9]), 7% in the series on Digitaria sanguinalis [2] (setting [10]), 7% in the series on Echinochloa crus [3] (setting [11]) and 6% in the series on Aeschynomene indica [4] (setting [12]). The pest or weed control at 175 g/ha was found to be 23% in the series on Abutilon theophrasti [1] (setting [9]), 22% in the series on Digitaria sanguinalis [2] (setting [10]), 24% in the series on Echinochloa crus [3] (setting [11]) and 18% in the series with Aeschynomene indica [4] (setting [12]). Further, the pest or weed control at 350 g/ha turned out to be 46% with Abutilon theophrasti [1] (setting [9]), 53% in the series on Digitaria sanguinalis [2] (setting [10]), 50% in the series with Echinochloa crus [3] (setting [11]) and 46% in the series with Aeschynomene indica [4] (setting [12]). The “Corn mortality, measured value” in the series with corn (87.5 g/ha) came out at 0; with corn (175 g/ha) it was 0; in the series on corn (350 g/ha) it was 1.
On to `COc1nc(C)nc(NC(=O)NS(=O)(=O)c2cc(I)ccc2C(=O)O)n1` [Iodosulfuron], for which the pest or weed control at 1.25 g/ha in the series with Abutilon theophrasti [1] (setting [9]) was found to be 13%; in the series with Digitaria sanguinalis [2] (setting [10]) it was 12%; in the series with Echinochloa crus [3] (setting [11]) it was 7%; in the series with Aeschynomene indica [4] (setting [12]) it was 12%. The pest or weed control at 5 g/ha is 61% in the series with Abutilon theophrasti [1] (setting [9]), 56% in the series with Digitaria sanguinalis [2] (setting [10]), 58% in the series with Echinochloa crus [3] (setting [11]) and 47% with Aeschynomene indica [4] (setting [12]). The entries for the “Corn mortality, measured value” with corn (1.25 g/ha) and in the series with corn (5 g/ha) were 0 and 1, respectively.
Consider `CS(=O)(=O)c1cc(C(F)(F)F)ccc1C(=O)c1cnoc1C1CC1` [Isoxaflutole], for which the pest or weed control at 12.5 g/ha in the series on Abutilon theophrasti [1] (setting [9]) worked out at 12%; with Digitaria sanguinalis [2] (setting [10]), 10%; with Echinochloa crus [3] (setting [11]) it was 14%; in the series with Aeschynomene indica [4] (setting [12]) it was 9%. Moreover, the pest or weed control at 25 g/ha in the series with Abutilon theophrasti [1] (setting [9]) is 31%; with Digitaria sanguinalis [2] (setting [10]), 24%; in the series on Echinochloa crus [3] (setting [11]) it was 29%; with Aeschynomene indica [4] (setting [12]), 28%. In addition, the pest or weed control at 50 g/ha worked out at 62% with Abutilon theophrasti [1] (setting [9]), 53% in the series on Digitaria sanguinalis [2] (setting [10]), 61% with Echinochloa crus [3] (setting [11]) and 56% with Aeschynomene indica [4] (setting [12]). Moreover, the “Corn mortality, measured value” with corn (12.5 g/ha), in the series on corn (25 g/ha) and in the series with corn (50 g/ha) was 0 each time.
Consider `CCc1cc(C)cc(CC)c1-c1c(OC(=O)C(C)(C)C)n2n(c1=O)CCOCC2` [Pinoxaden], for which the pest or weed control at 6.25 g/ha in the series on Abutilon theophrasti [5] (read-out: Data (measured value) Abutilon theophrasti, 6.25 g/ha) came to 0%; in the series on Xanthium spinosum (read-out: Data (measured value) Xanthium spinosum, 6.25 g/ha), 0%; with Aeschynomene indica [7] (read-out: Data (measured value) Aeschynomene indica, 6.25 g/ha), 0%. In addition, the pest or weed control at 12.5 g/ha in the series on Abutilon theophrasti [5] (read-out: Data (measured value) Abutilon theophrasti, 12.5 g/ha) amounted to 0%; with Xanthium spinosum (read-out: Data (measured value) Xanthium spinosum, 12.5 g/ha), 0%; in the series with Aeschynomene indica [7] (read-out: Data (measured value) Aeschynomene indica, 12.5 g/ha) it was 0%. For the same compound, the pest or weed control at 25 g/ha in the series on Abutilon theophrasti [5], in the series on Xanthium spinosum and in the series on Aeschynomene indica [7] was 0% throughout. Also, the figures for the “Data (measured value) Echinochloa crus” value in the series with Echinochloa crus [6] (6.25 g/ha), with Echinochloa crus [6] (12.5 g/ha) and with Echinochloa crus [6] (25 g/ha) were 10, 29 and 63, respectively. Further, the “Data (measured value) Digitaria sanguinalis” value in the series with Digitaria sanguinalis [8] (6.25 g/ha) stood at 12; in the series with Digitaria sanguinalis [8] (12.5 g/ha) it was 26; in the series on Digitaria sanguinalis [8] (25 g/ha), 57.
In the case of `CCC(=O)Nc1ccc(Cl)c(Cl)c1` [Propanil], the pest or weed control at 375 g/ha in the series on Abutilon theophrasti [5] (setting [13]), with Xanthium spinosum (setting [13]) and in the series with Aeschynomene indica [7] (setting [13]) was 10% each time. For the same compound, the pest or weed control at 750 g/ha came out at 23% in the series on Abutilon theophrasti [5] (setting [14]), 24% in the series on Xanthium spinosum (setting [14]) and 27% in the series on Aeschynomene indica [7] (setting [14]). The pest or weed control at 1500 g/ha was 56% in the series with Abutilon theophrasti [5] (setting [15]), 58% in the series with Xanthium spinosum (setting [15]) and 56% in the series with Aeschynomene indica [7] (setting [15]). Moreover, the “plant mortality, measured value” with Echinochloa crus [6] (375 g/ha) was 11; with Echinochloa crus [6] (750 g/ha), 21; with Echinochloa crus [6] (1500 g/ha), 46; in the series on Digitaria sanguinalis [8] (375 g/ha), 7; in the series with Digitaria sanguinalis [8] (750 g/ha), 22; with Digitaria sanguinalis [8] (1500 g/ha), 45.
As for `O=C(O)c1c(Cl)ccc2cc(Cl)cnc12` [Quinclorac], the pest or weed control at 50 g/ha in the series on Abutilon theophrasti [5] (setting [16]) came out at 9%; in the series on Xanthium spinosum (setting [16]) it was 11%; with Aeschynomene indica [7] (setting [16]) it was 10%. Also, the results for the pest or weed control at 100 g/ha in the series with Abutilon theophrasti [5] (setting [17]), in the series on Xanthium spinosum (setting [17]) and in the series on Aeschynomene indica [7] (setting [17]) were 26%, 29% and 27%, respectively. Moreover, the pest or weed control at 200 g/ha in the series on Abutilon theophrasti [5] (setting [18]) is 57%; in the series on Xanthium spinosum (setting [18]), 62%; with Aeschynomene indica [7] (setting [18]) it was 57%. Moreover, the “plant mortality, measured value” in the series with Echinochloa crus [6] (50 g/ha) was found to be 13; with Echinochloa crus [6] (100 g/ha) it was 26; in the series on Echinochloa crus [6] (200 g/ha), 55; in the series with Digitaria sanguinalis [8] (50 g/ha), 6; with Digitaria sanguinalis [8] (100 g/ha), 21; in the series with Digitaria sanguinalis [8] (200 g/ha) it was 49.
Turning to `CCO/N=C(\CC)C1=C(O)CC(c2c(C)cc(C)cc2C)CC1=O` (stereo not shown) [Tralkoxydim], the pest or weed control at 25 g/ha in the series with Abutilon theophrasti [5], with Xanthium spinosum and in the series with Aeschynomene indica [7] was 0% in each case. For the same compound, the pest or weed control at 50 g/ha was 0% in the series with Abutilon theophrasti [5] (read-out: Data (measured value) Abutilon theophrasti, 50 g/ha); 0% in the series with Xanthium spinosum (read-out: Data (measured value) Xanthium spinosum, 50 g/ha); 0% with Aeschynomene indica [7] (read-out: Data (measured value) Aeschynomene indica, 50 g/ha). Besides, the pest or weed control at 100 g/ha was found to be 0% in the series with Abutilon theophrasti [5] (read-out: Data (measured value) Abutilon theophrasti, 100 g/ha); 0% with Xanthium spinosum (read-out: Data (measured value) Xanthium spinosum, 100 g/ha); 0% with Aeschynomene indica [7] (read-out: Data (measured value) Aeschynomene indica, 100 g/ha). Also, the “Data (measured value) Echinochloa crus” value in the series on Echinochloa crus [6] (25 g/ha) is given as 10; in the series with Echinochloa crus [6] (50 g/ha), 24; with Echinochloa crus [6] (100 g/ha), 56. Also, the “Data (measured value) Digitaria sanguinalis” value with Digitaria sanguinalis [8] (25 g/ha) worked out at 8; in the series on Digitaria sanguinalis [8] (50 g/ha), 21; in the series with Digitaria sanguinalis [8] (100 g/ha) it was 47.
Turning to `O=C(O)COc1nc(Cl)c(Cl)cc1Cl` [Triclopyr], the pest or weed control at 125 g/ha with Abutilon theophrasti [5] (read-out: Data (measured value) Abutilon theophrasti, 125 g/ha) stood at 11%; in the series on Xanthium spinosum (read-out: Data (measured value) Xanthium spinosum, 125 g/ha) it was 13%; with Aeschynomene indica [7] (read-out: Data (measured value) Aeschynomene indica, 125 g/ha), 9%. The pest or weed control at 250 g/ha in the series on Abutilon theophrasti [5] (read-out: Data (measured value) Abutilon theophrasti, 250 g/ha) worked out at 23%; with Xanthium spinosum (read-out: Data (measured value) Xanthium spinosum, 250 g/ha), 30%; in the series with Aeschynomene indica [7] (read-out: Data (measured value) Aeschynomene indica, 250 g/ha), 26%. Further, the pest or weed control at 500 g/ha is 54% with Abutilon theophrasti [5] (read-out: Data (measured value) Abutilon theophrasti, 500 g/ha); 59% in the series on Xanthium spinosum (read-out: Data (measured value) Xanthium spinosum, 500 g/ha); 58% with Aeschynomene indica [7] (read-out: Data (measured value) Aeschynomene indica, 500 g/ha). In addition, the “Data (measured value) Echinochloa crus” value with Echinochloa crus [6] (125 g/ha), with Echinochloa crus [6] (250 g/ha) and in the series on Echinochloa crus [6] (500 g/ha) was 0 in each case. The “Data (measured value) Digitaria sanguinalis” value with Digitaria sanguinalis [8] (125 g/ha), in the series with Digitaria sanguinalis [8] (250 g/ha) and in the series on Digitaria sanguinalis [8] (500 g/ha) was 0 throughout.
